Measurements as given in PubChem BioAssay (NCI).
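Cultured in 96-well plates, cells were exposed to test compound for 48 hours across five concentrations. TGI is the concentration that stops growth completely.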

Experiments:
Test in all cases: NCI tumour cell line growth inhibition, 48 h
[1] = tested on: 786-0 renal
[2] = tested on: HCC-2998 colon
[3] = tested on: HS 578T breast
[4] = tested on: HT29 colon
[5] = tested on: K-562 leukemia
[6] = tested on: M14 melanoma
[7] = tested on: MALME-3M melanoma
[8] = tested on: MCF7 breast
[9] = tested on: MDA-MB-231 breast
[10] = tested on: MDA-N
[11] = tested on: NCI-H522 lung
[12] = tested on: NCI/ADR-RES ovarian
[13] = tested on: OVCAR-3 ovarian
[14] = tested on: OVCAR-8 ovarian
[15] = tested on: PC-3 prostate
[16] = tested on: SF-268 CNS
[17] = tested on: SK-MEL-28 melanoma
[18] = tested on: SK-OV-3 ovarian
[19] = tested on: T-47D breast
[20] = tested on: U251 CNS

Structure (SMILES)	TGI [1] [µM]	TGI [2] [µM]	TGI [3] [µM]	TGI [4] [µM]	TGI [5] [µM]	TGI [6] [µM]	TGI [7] [µM]	TGI [8] [µM]	TGI [9] [µM]	TGI [10] [µM]	TGI [11] [µM]	TGI [12] [µM]	TGI [13] [µM]	TGI [14] [µM]	TGI [15] [µM]	TGI [16] [µM]	TGI [17] [µM]	TGI [18] [µM]	TGI [19] [µM]	TGI [20] [µM]
c1ccc(C2=NCCN2)c(C2=NCCN2)c1	> 100	> 100	> 100	> 100	> 100	> 100	> 100	> 100	> 100	> 100	> 100	> 100	> 100	> 100	> 100	> 100	> 100	> 100	> 100	> 100
NC(N)=NS(=O)(=O)c1ccc(NNc2c3ccccc3nc3c(C(=O)Nc4ccc(S(=O)(=O)N=C(N)N)cc4)cccc23)cc1	> 100	> 100	> 100	> 100	63.6	> 100	79.1	> 100	> 100	> 100	67.1	> 100	> 100	> 100	> 100	> 100	89.6	> 100	> 100	> 100
O=C(c1c(F)c(F)c(F)c(F)c1F)N1CCN(C(=O)c2c(F)c(F)c(F)c(F)c2F)C1=S	27.3	22.7	18.9	12.9	> 100	4.02	15.8	21.1	14.4	6.54	1.65	32.1	12	12.9	21	32.6	14.9	21.6	24.2	22.2
NC(=O)c1cc2ccc(O)cc2o/c1=N/NC(=O)c1ccccc1	> 100	> 100	> 100	> 100	> 100	> 100	> 100	> 100	> 100	> 100	> 100	> 100	> 100	> 100	> 100	> 100	> 100	> 100	91.4	> 100
CSC1=Nc2ccccc2-c2nc3ccccc3cc2C1	> 100	> 100	> 100	> 100	> 100	> 100	> 100	> 100	> 100	> 100	> 100	> 100	> 100	> 100	> 100	> 100	> 100	> 100	> 100	> 100
COC(=O)c1ccccc1C1CN=NC12Cc1ccccc1C2=O (stereo not given)	> 100	> 100	> 100	> 100	> 100	> 100	> 100	> 100	> 100	> 100	> 100	> 100	> 100	> 100	> 100	> 100	> 100	> 100	> 100	> 100
O=C1c2ccccc2CN1c1ccc(OCCN2CCCCC2)cc1	> 10	> 10	> 10	> 10	> 10	> 10	> 10	> 10	> 10	> 10	> 10	> 10	> 10	> 10	> 10	> 10	> 10	> 10	> 10	> 10
CCN(CC)CCC(=O)c1ccc(C)cc1	34.3	> 100	> 100	49.6	52.3	35.8	42.4	17.4	29	51.6	32.7	65.7	33.1	> 100	> 100	> 100	29.9	> 100	39.8	> 100
O=C1c2ccccc2C(=O)N1CC1S(=O)(=O)OCCOS1(=O)=O	> 100	> 100	> 100	> 100	> 100	> 100	> 100	> 100	> 100	> 100	> 100	> 100	> 100	> 100	> 100	> 100	> 100	> 100	> 100	> 100
CN=c1c2c(c3[nH]c4ccccc4c4cnc1c34)NCCC2=O	> 10	> 10	> 10	> 10	> 10	> 10	> 10	> 10	> 10	> 10	> 10	> 10	> 10	> 10	> 10	> 10	> 10	> 10	> 10	> 10
CCn1c(SCC(=O)N/N=C/c2ccccc2)nc2ccccc2c1=O	41.7	> 100	49.3	> 100	> 100	> 100	> 94.6	> 46.4	80.8	> 29.3	27.5	> 100	> 100	> 82.1	> 46.4	> 70.2	> 100	27.1	> 100	> 70.9
